Experiment [1] concerns the target NR1/NR2B (Homo sapiens (Human), UniProt Q05586+Q13224). Put plainly: Cell assay: FDSS Ca2+ influx inhibition in HEK293 cells expressing NR1/NR2B.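 Note: Fluo-8 Ca2+ signal read on Hamamatsu FDSS 6000 after glutamate, glycine and Ca2+ challenge following 10 min compound preincubation, end/baseline fluorescence ratio compared with MK801 control.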 The note with it: Binned Activity, HEK293 cells expressing NR1/NR2B, Ca2+ influx; binned NR2B NAM IC50.
Experimental: (§1) Cell Culture and plating: HEK293 cells expressing NR1/NR2B (Chantest, Cleveland, Ohio) were grown to 70-80% confluency as an adherent monolayer in standard tissue culture flasks at 37° C., 5% CO2 per supplier's instructions. NR2B expression was induced by incubation with 0.3-0.4 μg/ml tetracycline in the presence of 4 mM ARL-15896 for 18-24 hours under the same growth conditions, then transferred to 30° C. for another 3-5 hours.
(§2) After induction, cell culture medium was removed and cells were rinsed once with Ca^2+ and Mg^2+-free Dulbecco's phosphate buffered saline. Cells were then removed from the flask using TrypLE™ Express (Life Technologies) according to the manufacturer's instructions and collected to 50 ml centrifuge tubes. Following two washes in Ca^2+/Mg^2+-free HBSS with 20 mM HEPES (HHnoCa), cells were counted and viability assessed using trypan blue. To load cells with Ca^2+-sensitive dye, they were resuspended in fluo-8 plus Component B (AAT Bioquest Products) diluted in HHnoCa and incubated 15 minutes at 37° C., followed by 30 minutes at room temp (in dark). Cells were then washed and resuspended in HHnoCa to remove extracellular dye and plated in 384-well plates (Falcon, uncoated) at 20,000-30,000 cells/well in a final volume of 25 μl/well.
(§3) FDSS Assay: To each well of the plate, 10 μL test compound, control (MK801) or HHnoCa buffer was added to a final concentration of 10 μM with a final concentration of DMSO of 0.1%. Following 10 minutes pre-incubation in the dark, plates are loaded onto the Hamamatsu FDSS 6000. After collecting baseline fluorescence images, 3 μM glutamate, 3 glycine, and 1 mM Ca^2+ in HHnoCa buffer is added to each well, and Ca^2+ is recorded for 3 minutes. Data were processed by computing ratio of fluorescence at the end of data collection to baseline fluorescence to assess degree of Ca′ influx inhibition relative to that observed in MK801.
Experiment [2] deals with NR1/NR2B (Homo sapiens (Human), UniProt Q13224). Described as above. The note with it: read-out: NR2B NAM IC50; HEK293 cells expressing NR1/NR2B, Ca2+ influx.
Experimental: as §1, §2, §3

Values joined by “and” are separate entries in the source; they are usually repeats but may differ in a detail not shown here. Equal values may be shown once.

Sequence of NR1/NR2B (Homo sapiens (Human), UniProt Q13224) (Q13224 27-1484, other chains not shown): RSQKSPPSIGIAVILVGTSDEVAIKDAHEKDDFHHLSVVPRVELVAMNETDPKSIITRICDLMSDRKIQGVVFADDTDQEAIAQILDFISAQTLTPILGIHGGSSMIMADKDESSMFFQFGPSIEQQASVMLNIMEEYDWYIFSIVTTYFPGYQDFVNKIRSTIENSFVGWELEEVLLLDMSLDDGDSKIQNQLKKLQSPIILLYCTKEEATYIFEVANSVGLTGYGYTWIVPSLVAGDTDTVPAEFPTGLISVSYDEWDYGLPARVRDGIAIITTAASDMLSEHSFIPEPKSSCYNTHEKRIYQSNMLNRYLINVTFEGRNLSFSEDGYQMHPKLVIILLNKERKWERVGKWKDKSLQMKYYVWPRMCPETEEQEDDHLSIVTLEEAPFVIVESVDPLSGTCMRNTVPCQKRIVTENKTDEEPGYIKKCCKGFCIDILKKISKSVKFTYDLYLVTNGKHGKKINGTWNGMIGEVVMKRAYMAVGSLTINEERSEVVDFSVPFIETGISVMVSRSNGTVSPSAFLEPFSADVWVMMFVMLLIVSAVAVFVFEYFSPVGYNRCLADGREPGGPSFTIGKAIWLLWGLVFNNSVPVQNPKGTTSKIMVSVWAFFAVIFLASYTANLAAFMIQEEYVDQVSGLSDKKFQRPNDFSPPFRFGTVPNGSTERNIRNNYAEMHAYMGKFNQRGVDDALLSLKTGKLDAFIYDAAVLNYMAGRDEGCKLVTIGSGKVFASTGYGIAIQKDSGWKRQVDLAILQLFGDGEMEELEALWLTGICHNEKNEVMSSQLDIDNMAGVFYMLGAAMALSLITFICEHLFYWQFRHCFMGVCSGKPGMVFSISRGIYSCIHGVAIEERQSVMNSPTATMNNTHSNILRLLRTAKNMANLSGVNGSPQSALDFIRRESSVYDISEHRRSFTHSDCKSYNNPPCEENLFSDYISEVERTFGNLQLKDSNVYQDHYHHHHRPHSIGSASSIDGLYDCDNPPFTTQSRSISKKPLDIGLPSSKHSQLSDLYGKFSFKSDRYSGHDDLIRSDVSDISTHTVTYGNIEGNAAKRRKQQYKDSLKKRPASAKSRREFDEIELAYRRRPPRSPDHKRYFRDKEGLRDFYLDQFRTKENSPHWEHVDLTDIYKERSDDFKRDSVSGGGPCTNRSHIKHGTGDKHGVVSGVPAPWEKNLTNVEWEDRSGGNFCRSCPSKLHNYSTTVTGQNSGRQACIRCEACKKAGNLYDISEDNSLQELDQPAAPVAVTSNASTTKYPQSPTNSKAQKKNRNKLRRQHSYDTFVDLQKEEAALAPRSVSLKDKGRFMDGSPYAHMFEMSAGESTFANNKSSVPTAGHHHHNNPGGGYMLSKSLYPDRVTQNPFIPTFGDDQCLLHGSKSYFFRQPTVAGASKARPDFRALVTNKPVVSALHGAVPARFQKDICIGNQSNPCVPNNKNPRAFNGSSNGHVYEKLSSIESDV
Sequence of NR1/NR2B (Homo sapiens (Human), UniProt Q05586+Q13224) (Q13224 27-1484, other chains not shown): as above

`O=C(CN1C[C@@H]2C[C@@](O)(Cc3ccccc3)C[C@@H]2C1)c1cccc(-c2ccc(O)cc2)c1` [Example 275, 2-((3aR,5r,6aS)-5-benzyl-5-hydroxyhexahydrocyclo-penta[c]pyrrol-2(1H)-yl)-1-(4′-hydroxy-[1,1′-biphenyl]-3-yl)ethanone]: the IC50 – broadly, the concentration that gives 50% inhibition – on NR1/NR2B [1] is over 10 µM; on NR1/NR2B [2], 10 µM.
For `COc1cccc(NC(=O)N2C[C@H]3CC(Cc4ccccc4)C[C@H]3C2)c1` (stereo partly drawn) [Example 294, (3aR,6aS)-5-benzyl-N-(3-methoxyphenyl) hexahydro-cylcopenta[c]pyrrole-2(1H)-carboxamide], in that order: over 10 µM and 10 µM.
`CC(C)(C)c1ccc([C@]2(O)C[C@H]3CN(C(=O)Nc4cccc(Cl)c4)C[C@H]3C2)cc1` [Example 56, 5-(4-tert-butylphenyl)-N-(3-chlorophenyl)-5-hydroxy-octahydrocyclopenta[c] pyrrole-2-carboxamide]: the IC50 at NR1/NR2B [1] is over 10 µM; at NR1/NR2B [2], 10 µM.
For the molecule `Oc1ccc([C@@H](O)CN2C[C@@H]3C[C@@](O)(Cc4ccccc4)C[C@@H]3C2)cc1F` [Example 180, (3aR,5R,6aS)-5-benzyl-2-((R)-2-(3-fluoro-4-hydroxyphenyl)-2-hydroxyethyl)octahydro-cyclopenta[c]pyrrol-5-ol], the IC50 against NR1/NR2B [1] was under 0.1 µM; at NR1/NR2B [2] it was 0.0223 µM and 0.0228 µM.
For the molecule `CC(C)(C)C(=O)Nc1ccc(C(=O)CN2C[C@@H]3C[C@@](O)(Cc4ccccc4)C[C@@H]3C2)cn1` [Example 285, N-(5-(2-(5-benzyl-5-hydroxyhexahydrocyclo-penta[c]pyrrol-2(1H)-yl)acetyl)pyridin-2-yl)pivalamide], the half-maximal inhibitory concentration (IC50) against NR1/NR2B [1] is over 10 µM; at NR1/NR2B [2], 10 µM.
Take `Cc1ccccc1[C@]1(O)C[C@H]2CN(c3ccccn3)C[C@H]2C1` [Example 82, 5-(2-methylphenyl)-2-(pyridin-2-yl)-octahydrocyclopenta[c] pyrrol-5-ol]: the IC50 at NR1/NR2B [1] is over 10 µM; at NR1/NR2B [2], 10 µM.
In the same order, the values of `O=C(CN1C[C@@H]2C[C@@](O)(Cc3ccc(F)cc3F)C[C@@H]2C1)c1ccc(O)cn1` [Example 230, 2-((3aR,5r,6aS)-5-(2,4-difluorobenzyl)-5-hydroxyhexahydrocyclo-penta[c]pyrrol-2(1H)-yl)-1-(5-hydroxypyridin-2-yl)ethanone] are 1 to 10 µM and 2.16 µM.
In the same order, the values of `O=C(Nc1cccc(Cl)c1)N1C[C@@H]2C[C@@](O)(Cc3ccccc3)C[C@@H]2C1` [Example 118, (3aR,5r,6aS)-5-benzyl-N-(3-chlorophenyl)-5-hydroxyhexahydrocyclo-penta[c]pyrrole-2(1H)-carboxamide] are over 10 µM and 10 µM.
Regarding `O=C(Nc1ccc(Cl)c(C(F)(F)F)c1)N1C[C@H]2C[C@@H](c3ccccc3)C[C@H]2C1` [Example 108, N-[4-chloro-3-(trifluoromethyl)phenyl]-5-phenyl-octahydrocyclopenta[c] pyrrole-2-carboxamide], the IC50 on NR1/NR2B [1] was over 10 µM; at NR1/NR2B [2], 10 µM.
For `O=C(CN1C[C@@H]2C[C@@](O)(c3ccccc3)C[C@@H]2C1)c1cccc(F)c1` [Example 61, 1-(3-fluorophenyl)-2-{5-hydroxy-5-phenyl-octahydrocyclopenta[c]pyrrol-2-yl}ethan-1-one], in that order: over 10 µM and 10 µM.
Turning to `CO[C@@]1(Cc2ccccc2)C[C@H]2CN(CC(=O)c3ccc(O)c(F)c3)C[C@H]2C1` [Example 170, 2-((3aR,5r,6aS)-5-benzyl-5-methoxyhexahydrocyclo-penta[c]pyrrol-2(1H)-yl)-1-(3-fluoro-4-hydroxyphenyl)ethanone], the IC50 was 0.1 to 1 µM against NR1/NR2B [1] and 0.132 µM at NR1/NR2B [2].
As for `CC(C)(C)c1ccc([C@]2(O)C[C@H]3CN(c4ccccn4)C[C@H]3C2)cc1` [Example 88, 5-(4-tert-butylphenyl)-2-(pyridin-2-yl)-octahydrocyclopenta[c] pyrrol-5-ol], the IC50 against NR1/NR2B [1] is over 10 µM; at NR1/NR2B [2] it was 10 µM.
In the same order, the values of `COc1ccc(C)cc1NC(=O)N1C[C@@H]2C[C@@](O)(Cc3ccccc3)C[C@@H]2C1` [Example 124, (3aR,5r,6aS)-5-benzyl-5-hydroxy-N-(2-methoxy-5-methylphenyl)hexahydro-cyclopenta[c]pyrrole-2(1H)-carboxamide] are over 10 µM and 10 µM.
In the same order, the values of `O=C(CN1C[C@@H]2C[C@@](O)(c3cccnc3F)C[C@@H]2C1)c1ccc(O)cn1` [Example 244, 2-((3aR,6aS)-5-(2-fluoropyridin-3-yl)-5-hydroxyhexahydrocyclo-penta[c]pyrrol-2(1H)-yl)-1-(5-hydroxypyridin-2-yl)ethanone] are over 10 µM and 10 µM.
For `COc1ccc(C)cc1NC(=O)N1C[C@@H]2C[C@@](O)(c3ccccc3C)C[C@@H]2C1` [Example 23, 5-hydroxy-N-(2-methoxy-5-methylphenyl)-5-(2-methylphenyl)-octahydrocyclopenta[c] pyrrole-2-carboxamide], in that order: over 10 µM and 10 µM.
Regarding `O=C(CN1C[C@@H]2C[C@@](O)(Cc3ccccc3)C[C@@H]2C1)c1ccc(Cl)nc1` [Example 155, 2-((3aR,5r,6aS)-5-benzyl-5-hydroxyhexahydrocyclo-penta[c]pyrrol-2(1H)-yl)-1-(6-chloropyridin-3-yl)ethanone], the half-maximal inhibitory concentration (IC50) at NR1/NR2B [1] was over 10 µM; at NR1/NR2B [2], 10 µM.
In the same order, the values of `CS(=O)(=O)Nc1ccc(C(=O)CN2C[C@@H]3C[C@@](O)(Cc4ccccc4)C[C@@H]3C2)cc1` [Example 146, N-(4-(2-((3aR,5r,6aS)-5-benzyl-5-hydroxyhexahydrocyclo-penta[c]pyrrol-2(1H)-yl)acetyl)phenyl)methane-sulfonamide] are 0.1 to 1 µM and 0.326 µM.
Take `COc1ccc(C)cc1NC(=O)N1C[C@@H]2C[C@@](O)(c3ccc(F)cc3)C[C@@H]2C1` [Example 42]: the results for the concentration for half-maximal inhibition (IC50) against NR1/NR2B [1] and on NR1/NR2B [2] were over 10 µM and 10 µM, respectively.
For `O=C(CN1C[C@@H]2C[C@@](O)(Cc3ccccc3)C[C@@H]2C1)c1ccc(O)c(F)c1` [Example 151, 2-((3aR,5r,6aS)-5-benzyl-5-hydroxyhexahydrocyclo-penta[c]pyrrol-2(1H)-yl)-1-(3-fluoro-4-hydroxyphenyl)ethanone], in that order: 0.1 to 1 µM and 0.372 µM.
For `COc1ccc(NC(=O)N2C[C@H]3C[C@@H](c4ccccc4)C[C@H]3C2)cc1` [Example 99, 2 N-(4-methoxyphenyl)-5-phenylhexahydrocyclo-penta[c]pyrrole-2(1H)-carboxamide], in that order: over 10 µM and 10 µM.
Take `O=C(CN1C[C@@H]2C[C@@](O)(Cc3ccccc3)C[C@@H]2C1)c1ccc(-c2ccc(O)cc2)cc1` [Example 257, 2-((3aR,5r,6aS)-5-benzyl-5-hydroxyhexahydrocyclo-penta[c]pyrrol-2(1H)-yl)-1-(4′-hydroxy-[1,1′-biphenyl]-4-yl)ethanone]: the IC50 on NR1/NR2B [1] is over 10 µM; at NR1/NR2B [2] it was 10 µM.
As to `CC(=O)Nc1ccc(C(=O)CN2C[C@@H]3C[C@@](O)(Cc4ccccc4)C[C@@H]3C2)cn1` [Example 282, N-(5-(2-((3aR,5r,6aS)-5-benzyl-5-hydroxyhexahydrocyclo-penta[c]pyrrol-2(1H)-yl)acetyl)pyridin-2-yl)acetamide], the 50% inhibitory concentration (IC50) at NR1/NR2B [1] was over 10 µM; on NR1/NR2B [2], 10 µM.
Regarding `O=C(CN1C[C@@H]2C[C@@](O)(Cc3ccccc3)C[C@@H]2C1)c1ccc(-c2ccc(F)cc2)cc1` [Example 262, 2-((3aR,5r,6aS)-5-benzyl-5-hydroxyhexahydrocyclo-penta[c]pyrrol-2(1H)-yl)-1-(4′-fluoro-[1,1′-biphenyl]-4-yl)ethanone], the IC50 on NR1/NR2B [1] is over 10 µM; at NR1/NR2B [2] it was 10 µM.
For `O=C(CN1C[C@@H]2C[C@@](O)(Cc3ccccc3)C[C@@H]2C1)c1cc(F)c(O)c(F)c1` [Example 159, 2-((3aR,5r,6aS)-5-benzyl-5-hydroxyhexahydrocyclo-penta[c]pyrrol-2(1H)-yl)-1-(3,5-difluoro-4-hydroxyphenyl)ethanone], in that order: over 10 µM and 11.6 µM.
For `O=C(CCN1C[C@@H]2C[C@@](O)(Cc3ccccc3)C[C@@H]2C1)c1ccc(O)cc1` [Example 133, 3-((3aR,5r,6S)-5-benzyl-5-hydroxyhexahydrocyclo-penta[c]pyrrol-2(1H)-yl)-1-(4-hydroxyphenyl)propan-1-one], in that order: 1 to 10 µM and 7.05 µM.
For `O=C(CN1C[C@@H]2C[C@@](O)(Cc3ccccc3)C[C@@H]2C1)c1cccc(-c2cccc(F)c2)c1` [Example 271, 2-((3aR,5r,6aS)-5-benzyl-5-hydroxyhexahydrocyclo-penta[c]pyrrol-2(1H)-yl)-1-(3′-fluoro-[1,1′-biphenyl]-3-yl)ethanone], in that order: over 10 µM and 10 µM.
For the molecule `O=C(CN1C[C@@H]2C[C@@](F)(Cc3ccccc3)C[C@@H]2C1)c1ccc(O)cc1` [Example 312], the results for the IC50 on NR1/NR2B [1] and at NR1/NR2B [2] were under 0.1 µM and 0.093 µM, respectively.
For `COc1cccc([C@]2(O)C[C@H]3CN(CC(=O)c4cccc(F)c4)C[C@H]3C2)c1` [Example 62, 1-(3-fluorophenyl)-2-[5-hydroxy-5-(3-methoxyphenyl)-octahydrocyclopenta[c]pyrrol-2-yl]ethan-1-one], in that order: over 10 µM and 10 µM.

The values above are taken from patent US10052306B2 (LUC THERAPEUTICS, INC., priority 2013, dated 2018).
